Data published in patent US6531471B2, “Morpholinone and morpholine derivatives and uses thereof” (Synaptic Pharmaceutical Corporation, priority 1998, dated 2003).
Where a name gives a salt, the structure may show the parent alone.

Experiments:
[1] = target: T1, human α1d receptor (Homo sapiens, UniProt P25100); assay: Radioligand binding assay at cloned human α1d adrenergic receptor; details: [3H]prazosin 0.5 nM, membrane preparations of transfected LM(tk−) cells, read-out: hα1d Ki
T1 construct: host or cells: LM(tk−) cells, membrane preparation
T1 sequence (P25100 1-572): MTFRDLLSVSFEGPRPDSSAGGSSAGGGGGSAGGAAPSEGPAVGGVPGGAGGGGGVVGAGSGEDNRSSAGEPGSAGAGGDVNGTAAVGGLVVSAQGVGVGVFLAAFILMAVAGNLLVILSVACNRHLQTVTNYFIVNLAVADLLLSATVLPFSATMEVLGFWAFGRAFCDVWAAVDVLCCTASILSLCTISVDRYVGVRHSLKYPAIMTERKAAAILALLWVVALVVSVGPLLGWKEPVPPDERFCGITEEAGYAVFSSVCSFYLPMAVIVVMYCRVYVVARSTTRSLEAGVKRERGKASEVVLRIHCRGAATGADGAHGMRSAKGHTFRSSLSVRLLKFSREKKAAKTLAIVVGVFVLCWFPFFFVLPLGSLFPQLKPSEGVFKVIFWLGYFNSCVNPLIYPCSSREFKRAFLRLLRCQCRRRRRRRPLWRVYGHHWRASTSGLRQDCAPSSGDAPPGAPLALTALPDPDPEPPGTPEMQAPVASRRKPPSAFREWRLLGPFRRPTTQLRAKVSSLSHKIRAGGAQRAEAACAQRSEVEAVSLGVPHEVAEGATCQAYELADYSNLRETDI
Method: (§1) These cell lines were prepared by transfecting the cloned cDNA or cloned genomic DNA or constructs containing both genomic DNA and cDNA encoding the human α-adrenergic receptors as follows:
The cells were grown, in a controlled environment (37° C., 5% CO2), as monolayers in Dulbecco's modified Eagle's Medium (GIBCO, Grand Island, N.Y.) containing 25 mM glucose and supplemented with 10% bovine calf serum, 100 units/ml penicillin g, and 100 μg/ml streptomycin sulfate.
(§2) Radioligand Binding Assays for α1 receptors: Transfected cells from culture flasks were scraped into 5 ml of 5 mM Tris-HCl, 5 mM EDTA, pH 7.5, and lysed by sonication. The cell lysates were centrifuged at 1000 rpm for 5 min at 4° C., and the supernatant was centrifuged at 30,000×g for 20 min at 4° C. The pellet was suspended in 50 mM Tris-HCl, 1 mM MgCl2, and 0.1% ascorbic acid at pH 7.5. Binding of the α1 antagonist [^3H]prazosin (0.5 nM, specific activity 76.2 Ci/mmol) to membrane preparations of LM(tk−) cells was done in a final volume of 0.25 ml and incubated at 37° C. for 20 min. Nonspecific binding was determined in the presence of […] phentolamine. The reaction was stopped by filtration through GF/B filters using a cell harvester.

[2] = target: T2, human α1b receptor (Homo sapiens, UniProt P35368); assay: Radioligand binding assay at cloned human α1b adrenergic receptor; details: [3H]prazosin 0.5 nM, membrane preparations of transfected LM(tk−) cells, read-out: hα1b Ki
T2 construct: host or cells: LM(tk−) cells, membrane preparation
T2 sequence (P35368 1-520): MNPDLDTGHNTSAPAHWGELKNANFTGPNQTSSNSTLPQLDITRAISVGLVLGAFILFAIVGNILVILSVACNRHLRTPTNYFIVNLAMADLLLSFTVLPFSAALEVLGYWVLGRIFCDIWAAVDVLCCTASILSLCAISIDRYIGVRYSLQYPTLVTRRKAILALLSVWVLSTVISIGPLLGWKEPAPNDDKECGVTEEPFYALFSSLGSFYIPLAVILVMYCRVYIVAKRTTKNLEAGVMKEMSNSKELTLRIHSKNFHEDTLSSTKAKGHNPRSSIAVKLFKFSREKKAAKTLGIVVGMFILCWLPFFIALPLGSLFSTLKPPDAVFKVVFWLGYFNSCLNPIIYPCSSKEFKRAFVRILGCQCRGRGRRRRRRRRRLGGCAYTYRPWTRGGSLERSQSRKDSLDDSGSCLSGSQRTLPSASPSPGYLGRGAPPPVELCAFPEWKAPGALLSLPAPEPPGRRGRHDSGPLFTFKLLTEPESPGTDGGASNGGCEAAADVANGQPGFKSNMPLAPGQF
Method: as §1
The construct involved ligating the full-length containing EcoRI brainstem cDNA fragment from λ ZapII into the expression vector. Stable cell lines were selected as described above.
as §2

[3] = target: T3, human α1a receptor (Homo sapiens, UniProt P35348); assay: Radioligand binding assay at cloned human α1a adrenergic receptor; details: [3H]prazosin 0.5 nM, membrane preparations of transfected LM(tk−) cells, read-out: hα1a Ki
T3 construct: host or cells: LM(tk−) cells, membrane preparation
T3 sequence (P35348 1-466): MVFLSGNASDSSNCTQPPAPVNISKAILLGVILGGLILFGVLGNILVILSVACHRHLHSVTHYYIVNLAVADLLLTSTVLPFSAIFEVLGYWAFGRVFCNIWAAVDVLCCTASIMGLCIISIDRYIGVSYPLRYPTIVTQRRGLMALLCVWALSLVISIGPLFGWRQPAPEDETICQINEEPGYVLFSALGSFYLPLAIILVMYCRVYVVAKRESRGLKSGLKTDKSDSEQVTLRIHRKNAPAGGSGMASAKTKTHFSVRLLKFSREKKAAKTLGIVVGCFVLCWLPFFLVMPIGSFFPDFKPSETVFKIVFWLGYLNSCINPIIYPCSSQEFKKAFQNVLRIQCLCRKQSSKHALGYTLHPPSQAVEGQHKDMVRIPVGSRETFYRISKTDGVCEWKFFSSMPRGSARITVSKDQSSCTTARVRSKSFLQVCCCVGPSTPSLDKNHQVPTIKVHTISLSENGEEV
Method: as §1
The construct involved ligating three partial overlapping fragments: a 5′ 0.6 kb HincII genomic clone, a central 1.8 EcoRI hippocampal cDNA clone, and a 3′ 0.6Kb PstI genomic clone. The hippocampal cDNA fragment overlaps with the 5′ and 3′ genomic clones so that the HincII and PstI sites at the 5′ and 3′ ends of the cDNA clone, respectively, were utilized for ligation. This full-length clone was cloned into the KpnI site of the expression vector, using the 5′ and 3′ KpnI sites of the fragment, derived from vector (i.e., pBluescript) and 3′-untranslated sequences, respectively. Stable cell lines were selected as described above.
as §2

| melting point [°C] | Ki [1] [nM] | Ki [2] [nM] | Ki [3] [nM] | Compound |
| --- | --- | --- | --- | --- |
| 110 to 113 |  |  |  | COc1ccc(F)cc1C1(c2ccccc2)CCN(CCCNC(=O)N2C(=O)COCC2c2ccc(F)c(F)c2)CC1 (single isomer, unassigned; (+)) (as salt: HCl) [Compound 1, (+)-3-(3,4-Difluorophenyl)-5-oxo-morpholine-4-carboxylic acid-{3-[4-(5-fluoro-2-methoxyphenyl)-4-phenyl-piperidin-1-yl}-propyl}-amide] |
|  | 307 | 244 | 1.6 | COc1ccc(F)cc1C1(c2ccccc2)CCN(CCCNC(=O)N2C(=O)COCC2c2ccc(F)c(F)c2)CC1 (single isomer, unassigned; (+)) [Compound 1, (+)-3-(3,4-Difluorophenyl)-5-oxo-morpholine-4-carboxylic acid-{3-[4-(5-fluoro-2-methoxyphenyl)-4-phenyl-piperidin-1-yl}-propyl}-amide] |
| 191 to 194 | 4200 | 1460 | 2.6 | CC1OCC(=O)N(C(=O)NCCCN2CCC(C#N)(c3ccccc3)CC2)C1c1ccc(F)c(F)c1 (single isomer, unassigned; (+)) [Compound 14] |
|  | 3160 | 3630 | 32 | NC(=O)c1ccccc1N1CCN(CCCNC(=O)N2C(=O)COCC2c2ccc(F)c(F)c2)CC1 (centres unmarked) [Compound 4, 3-(3,4-Difluoro-phenyl)-5-oxo-morpholine-4-carboxylic acid-{3-[4-(2-carboxamido)-phenyl-piperiazin-1-yl]-propyl}-amide] |
|  | 204 | 246 | 12.6 | N#CC1(c2ccccc2)CCC(NCCNC(=O)N2C(=O)COCC2c2ccc(F)c(F)c2)CC1 (centres unmarked) [Compound 7] |
|  | 580 | 464 | 3.8 | CC1(C)OCC(=O)N(C(=O)NCCCN2CCC(c3ccccn3)CC2)C1c1ccc(F)c(F)c1 (centres unmarked) [Compound 17, N-4-[3-{4-(2-pyridyl}piperidino)propyl]-3-(3,4-difluorophenyl)-2,2-dimethyl-5-oxo-4-morpholinecarboxamide hydrochloride] |
